Test results reported in patent publication US9388210B2, “Neuroactive 17(20)-Z-vinylcyano-substituted steroids, prodrugs thereof, and methods of treatment using same” (priority 2011, dated 2016).
Read-outs that look alike come from different tables or passages of the source.

Key:
[1] = system: tadpole; assay: Tadpole loss of righting reflex (LRR) and loss of swimming reflex (LSR); type: in vivo
[2] = system: BALB/C mice; assay: Anesthesia in mice, tail vein injection (loss of righting reflex); type: in vivo
Protocol: Anesthetic evaluations were performed in 7-8 week-old BALB/C mice, weighing approximately 20 g. Steroids were dissolved in 22.5% (w/v) 2-hydroxypropyl-β-cyclodextrin solution (Sigma-Aldrich) at a concentration of 1.6 mg/ml or 3.2 mg/ml and injected through the tail vein in volumes of 5 μl/g body weight. Doses (8 or 16 mg/kg) were calculated according to body weight. Animals were placed prone as soon as they stopped moving. Loss of LRR was defined as inability of mice to right themselves within 5 seconds after being placed in a prone position. […] Animals were placed on a warming blanket during the time that they were anesthetized. Each dose was administered to three or four mice and the results are presented as mean±standard error of the mean.

[3] = target: picrotoxin binding site on GABAA receptors; details: for IC50: duplicate experiments in triplicate, ± SEM, read-out: IC50, inhibition of [35S]-TBPS binding
[4] = target: rat α1β2γ2L type GABAA receptors (Rattus norvegicus (Rat), UniProt P62813+P63138, INS375LLRMFSFK); assay: Oocyte electrophysiology: potentiation of 2 μM GABA chloride currents and direct gating, Xenopus laevis oocytes; type: cell-based; details: for ratio of currents measured in the presence/absence of added compound, 0.1 μM: 0.1 μM compound; for ratio of currents measured in the presence/absence of added compound, 0.1 μM / ratio of currents measured in the presence/absence of added compound, 1 μM / (gating) 10 μM: ratio of compound only current/2 μM GABA current / ratio of currents measured in the presence/absence of added compound, 10 μM: ± SEM; for ratio of currents measured in the presence/absence of added compound, 0.1 μM / ratio of currents measured in the presence/absence of added compound, 1 μM / ratio of currents measured in the presence/absence of added compound, 10 μM: N ≥ 4; for ratio of currents measured in the presence/absence of added compound, 1 μM: 1 μM compound; for (gating) 10 μM: ratio of compound only current/2 μM GABA current: 10 μM compound in the absence of GABA; for ratio of currents measured in the presence/absence of added compound, 10 μM: 10 μM compound
Excerpt: The measured concentration of GABA, on average, gates about 4% of the maximum response of a cell. However, the sensitivity to GABA of the receptors, which determines the degree of steroid potentiation that can be measured, varied from one batch of oocytes to another.

[5] = loss of righting reflex, ± SEM, read-out: Tadpole LRR EC50
[6] = loss of swimming reflex, None = all animals had a swimming response at 10 μM
[7] = loss of swimming reflex, None = all animals had a swimming response at 10 μM, read-out: Tadpole LSR EC50

Row | Molecule | EC50 [1, 5] | IC50 [3] | ratio of currents measured in the presence/absence of added compound, 0.1 μM ([4]; 2 μM GABA) | ratio of currents measured in the presence/absence of added compound, 1 μM ([4]; 2 μM GABA) | (gating) 10 μM: ratio of compound only current/2 μM GABA current [4] | ratio of currents measured in the presence/absence of added compound, 10 μM ([4]; 2 μM GABA) | EC50 [1, 7] | also measured
1 | C[C@]12CC[C@@H](O)C[C@H]1CC[C@@H]1[C@@H]2C(=O)C[C@]2(C)/C(=C/C#N)CC[C@@H]12 [Compound 13b, [3α,5β,17(20)E]-3-Hydroxy-11-oxo-pregn-17(20)-ene-21-nitrile] | > 10 µM | – | – | – | – | – | – | Tadpole LSR EC50 [1, 6]: None
2 | CC(=O)[C@H]1CC[C@H]2[C@@H]3CC[C@H]4C[C@H](O)CC[C@]4(C)[C@H]3C(=O)C[C@]12C [Compound 1, alphaxalone, reference compound] | – | – | – | – | – | – | – | duration of anesthesia (loss of righting reflex) ([2]; 16 mg/kg): about 4 min; recovery period from initial return of leg movement to righting and walking ([2]; 16 mg/kg): 1 to 2 min
3 | CO[C@H]1C[C@@]2(C)[C@@H](CC[C@@H]3[C@@H]2CC[C@]2(C)/C(=C\C#N)CC[C@@H]32)C[C@@H]1O [Compound 16a, [2β,3α,5α,17(20)Z]-3-Hydroxy-2-methoxyandrost-17(20)-ene-21-nitrile] | 0.029 ± 0.006 µM | 0.028 ± 0.002 µM | 2.14 ± 0.33 | 12.02 ± 2.54 | 0.40 ± 0.12 | 18.77 ± 5.16 | 0.11 ± 0.001 µM | –
4 | C[C@]12CC[C@@H](O)C[C@H]1CC[C@@H]1[C@@H]2C(=O)C[C@]2(C)/C(=C\C#N)CC[C@@H]12 [Compound 13a, [3α,5β,17(20)Z]-3-Hydroxy-11-oxo-pregn-17(20)-ene-21-nitrile] | > 10 µM | – | – | – | – | – | – | Tadpole LSR EC50 [1, 6]: None
5 | C[C@]12CC[C@@H](O)C[C@@H]1CC[C@@H]1[C@@H]2C(=O)C[C@]2(C)C(C=O)=CC[C@@H]12 [Compound 5a, (3α,5α)-3-Hydroxy-11-oxoandrost-16-ene-17-carboxaldehyde] | 3.22 ± 0.03 µM | – | – | – | – | – | – | –
6 | C[C@]12CC[C@@H](O)C[C@@H]1CC[C@@H]1[C@@H]2CC[C@]2(C)/C(=C\C#N)CC[C@@H]12 [Compound 14a, [3α,5α,17(20)Z]-3-Hydroxypregn-17(20)-ene-21-nitrile] | – | 0.025 ± 0.003 µM | 2.18 ± 0.19 | 3.28 ± 0.37 | 0.29 ± 0.32 | 3.98 ± 0.25 | – | fold stronger [35S]-TBPS displacement than 17a ([3]; relative to C-11 MeO (17a)): about 2 fold; fold stronger [35S]-TBPS displacement than 6a ([3]; relative to C-11 carbonyl (6a)): about 5 fold; anesthetic activity in tadpoles ([1]; LRR and LSR): lack of anesthetic activity; Tadpole LRR EC50 ([1]; loss of righting reflex, ± SEM): None; Tadpole LSR EC50 [1, 6]: None
7 | C[C@]12CC[C@@H](O)C[C@@H]1CC[C@H]1[C@@H]3CC[C@H](C=O)[C@@]3(C)CC(=O)[C@@H]12 [Compound 5b, (3α,5α,17β)-3-Hydroxy-11-oxoandrostane-17-carboxaldehyde] | 3.98 ± 2.43 µM | – | – | – | – | – | – | –
8 | CO[C@H]1C[C@@]2(C)[C@@H](CC[C@@H]3[C@@H]2CC[C@]2(C)/C(=C/C#N)CC[C@@H]32)C[C@@H]1O [Compound 16b, [2β,3α,5α,17(20)E]-3-Hydroxy-2-methoxyandrost-17(20)-ene-21-nitrile] | 0.29 ± 0.05 µM | 0.544 ± 0.087 µM | 0.95 ± 0.15 | 1.34 ± 0.07 | 0.03 ± 0.14 | 4.81 ± 0.36 | 2.97 µM | –
9 | [3α,5α,17(20)E]-3-(Acetyloxy)-11-oxopregn-17(20)-ene-20-carbonitrile [Compound 6d] | 2.09 ± 0.12 µM | – | – | – | – | – | > 10 µM | –
10 | C[C@]12CC[C@@H](O)C[C@@H]1CC[C@@H]1[C@@H]2C(=O)C[C@]2(C)/C(=C\C#N)CC[C@@H]12 [Compound 6a, [3α,5α,17(20)Z]-3-Hydroxy-11-oxopregn-17(20)-ene-2′-nitrile] | – | – | – | – | – | – | 5.48 ± 0.2 µM | potentiation of GABA-mediated currents ([4]; 2 μM GABA, 0.1-10 μM compound): strongly enhanced GABA-mediated currents; duration of anesthesia (loss of righting reflex) ([2]; 8 mg/kg): about 1.5 min; time to loss of movement and righting reflex ([2]; 8 mg/kg): 10 to 25 s; duration of anesthesia (loss of righting reflex) ([2]; 16 mg/kg): about 4 min; onset of loss of righting reflex ([2]; 16 mg/kg): immediate
11 | C[C@]12CC[C@@H](O)C[C@@H]1CC[C@@H]1[C@@H]2CC[C@]2(C)/C(=C/C#N)CC[C@@H]12 [Compound 14b, [3α,5α,17(20)E]-3-Hydroxypregn-17(20)-ene-21-nitrile] | 1.21 ± 0.41 µM | 0.501 ± 0.039 µM | 0.76 ± 0.05 | 1.30 ± 0.07 | −0.14 ± 0.13 | 3.15 ± 0.38 | > 10 µM | –
12 | C[C@]12CC[C@@H](O)C[C@H]1CC[C@@H]1[C@@H]2CC[C@]2(C)/C(=C/C#N)CC[C@@H]12 [Compound 15b, [(3α,5β,17(20)E]-3-Hydroxypregn-17(20)-ene-21-nitrile] | 1.21 ± 0.35 µM | 1.2 µM | 0.94 ± 0.02 | 1.24 ± 0.04 | 0.01 ± 0.01 | 4.83 ± 0.44 | 5.48 ± 0.2 µM | –
13 | C[C@]12CC[C@@H](O)C[C@@H]1CC[C@@H]1[C@@H]2C(=O)C[C@]2(C)/C(=C/C#N)CC[C@@H]12 [Compound 6b, [3α,5α,17(20)E]-3-Hydroxy-11-oxopregn-17(20)-ene-2′-nitrile] | 9.15 ± 5.37 µM | – | – | – | – | – | 17.3 ± 0.17 µM | –
14 | C[C@]12CC[C@@H](O)C[C@H]1CC[C@@H]1[C@@H]2CC[C@]2(C)/C(=C\C#N)CC[C@@H]12 [Compound 15a, [3α,5β,17(20)Z]-3-Hydroxypregn-17(20)-ene-21-nitrile] | 0.472 ± 0.046 µM | 0.056 ± 0.01 µM | 1.32 ± 0.03 | 5.00 ± 0.30 | 0.03 ± 0.02 | 6.82 ± 0.68 | 1 µM | –
15 | C/C(C#N)=C1\CC[C@H]2[C@@H]3CC[C@H]4C[C@H](O)CC[C@]4(C)[C@H]3C(=O)C[C@]12C [Compound 6c, [3α,5α,17(20)Z]-3-Hydroxy-11-oxopregn-17(20)-ene-20-carbonitrile] | 2.71 ± 0.26 µM | – | – | – | – | – | 5.48 ± 0.2 µM | –
16 | CO[C@H]1C[C@]2(C)/C(=C\C#N)CC[C@H]2[C@@H]2CC[C@H]3C[C@H](O)CC[C@]3(C)[C@H]21 [Compound 17a, [3α,5α,11β,17(20)Z]-3-Hydroxy-11-methoxypregn-17(20)-ene-21-nitrile] | 0.067 ± 0.003 µM | 0.053 ± 0.007 µM | 2.14 ± 0.28 | 10.28 ± 2.62 | 0.06 ± 0.07 | 11.20 ± 3.28 | 0.173 ± 0.003 µM | –
17 | CO[C@H]1C[C@]2(C)/C(=C/C#N)CC[C@H]2[C@@H]2CC[C@H]3C[C@H](O)CC[C@]3(C)[C@H]21 [Compound 17b, [3α,5α,11β,17(20)E]-3-Hydroxy-11-methoxypregn-17(20)-en-21-nitrile] | 1.19 ± 0.49 µM | 0.605 ± 0.139 µM | 0.99 ± 0.02 | 1.07 ± 0.03 | 0.01 ± 0 | 3.68 ± 0.17 | 3.17 ± 0.01 µM | –
